Measured values reported in ChEMBL document CHEMBL1201862, “PubChem BioAssay data set” (2004).
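1) Cells in 96-well plates. 2) Compound, 48 h, 5 concentrations. 3) Linear interpolation between surrounding doses. 4) Unreached endpoint = highest concentration. GI50: concentration for 50% inhibition of growth.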 The source made the active and inactive calls. Rule as the data show it: active = GI50 up to about 1.1 µM and inactive = higher.

Experiments:
Assay in all cases: growth of human tumour cells (NCI), 48 h
RXF 393 = tested on: RXF 393
NCI-H23 = tested on: NCI-H23
BT-549 = tested on: BT-549
NCI-H460 = tested on: NCI-H460
CAKI-1 = tested on: CAKI-1
TK-10 = tested on: TK-10
EKVX = tested on: EKVX
Malme-3M = tested on: Malme-3M
OVCAR-5 = tested on: OVCAR-5
SK-OV-3 = tested on: SK-OV-3
OVCAR-8 = tested on: OVCAR-8
IGROV-1 = tested on: IGROV-1
UACC-62 = tested on: UACC-62
NCI/ADR-RES = tested on: NCI/ADR-RES
COLO 205 = tested on: COLO 205
HCT-116 = tested on: HCT-116
CCRF-CEM = tested on: CCRF-CEM
HOP-92 = tested on: HOP-92
ACHN = tested on: ACHN

Compound	GI50 (RXF 393)	GI50 (NCI-H23)	GI50 (BT-549)	GI50 (NCI-H460)	GI50 (CAKI-1)	GI50 (TK-10)	GI50 (EKVX)	GI50 (Malme-3M)	GI50 (OVCAR-5)	GI50 (SK-OV-3)	GI50 (OVCAR-8)	GI50 (IGROV-1)	GI50 (UACC-62)	GI50 (NCI/ADR-RES)	GI50 (COLO 205)	GI50 (HCT-116)	GI50 (CCRF-CEM)	GI50 (HOP-92)	GI50 (ACHN)
CCn1c(-c2ccc(OC(C)=O)cc2)c(C)c2cc(OC(C)=O)ccc21 [ZINDOXIFENE]	6.82 µM (inactive)	24.1 µM (inactive)	29.4 µM (inactive)	6.04 µM (inactive)	24.3 µM (inactive)	20 µM (inactive)	17.9 µM (inactive)	21.7 µM (inactive)	24.9 µM (inactive)	23.1 µM (inactive)	20 µM (inactive)	24 µM (inactive)	13.2 µM (inactive)	24.9 µM (inactive)	21.7 µM (inactive)	6.84 µM (inactive)	23.3 µM (inactive)	30.1 µM (inactive)	19.4 µM (inactive)
Nc1ccc(Oc2ccc(C34CC5CC6C3CC3CC4C(C5)C6(c4ccc(Oc5ccc(N)c(O)c5)cc4)C3)cc2)cc1O	4.13 µM (inactive)	3.55 µM (inactive)	1.15 µM (inactive)	3.56 µM (inactive)	4.5 µM (inactive)	4.92 µM (inactive)	1.79 µM (inactive)	13.8 µM (inactive)	2 µM (inactive)	10.1 µM (inactive)	0.67 µM (active)	5.14 µM (inactive)	10.1 µM (inactive)	3.1 µM (inactive)	1.31 µM (inactive)	1.31 µM (inactive)	3.33 µM (inactive)	1.35 µM (inactive)	2.44 µM (inactive)
CC(=O)OCC1OC(N2C(c3ccccc3)=CC(c3ccco3)C(C#N)=C2S)C(OC(C)=O)C(OC(C)=O)C1OC(C)=O (stereo not given)	4.06 µM (inactive)	5.79 µM (inactive)	3.59 µM (inactive)	14.7 µM (inactive)	14.7 µM (inactive)	18.7 µM (inactive)	> 29 µM (inactive)	3.04 µM (inactive)	6.9 µM (inactive)	21.7 µM (inactive)	2.83 µM (inactive)	27.4 µM (inactive)	13.6 µM (inactive)	4.78 µM (inactive)	3 µM (inactive)	3.18 µM (inactive)	12.6 µM (inactive)	6.22 µM (inactive)	7.85 µM (inactive)
COc1ccc(-n2c3c(c4c(CN(C)C)c(O)ccc42)C(=O)c2ccccc2C3=O)cc1	4.63 µM (inactive)	12.7 µM (inactive)	13.6 µM (inactive)	4.24 µM (inactive)	14.2 µM (inactive)	17.6 µM (inactive)	7.76 µM (inactive)	11.4 µM (inactive)	4.92 µM (inactive)	2.48 µM (inactive)	3.26 µM (inactive)	3.99 µM (inactive)	4.41 µM (inactive)	5.73 µM (inactive)	8.09 µM (inactive)	1.68 µM (inactive)	2.99 µM (inactive)	16 µM (inactive)	2.17 µM (inactive)
Nc1nc(NCc2ccccc2)cc(NCc2ccccc2)n1	6.31 µM (inactive)	5 µM (inactive)	7.55 µM (inactive)	4.73 µM (inactive)	2.64 µM (inactive)	8.02 µM (inactive)	9.93 µM (inactive)	5.66 µM (inactive)	16.9 µM (inactive)	9.08 µM (inactive)	4.11 µM (inactive)	4.44 µM (inactive)	3.67 µM (inactive)	3.23 µM (inactive)	2.97 µM (inactive)	3.45 µM (inactive)	4.24 µM (inactive)	5.38 µM (inactive)	7.26 µM (inactive)
